Bioavailabilities, bioavailability and absorption rate data for one molecule are collected here from patent publication US6673968B1, “Method of producing n-(4,5-bis-methanesulfonyl-2-methyl-benzoyl)-guanidine, the hydrochloride thereof” (Merck Patent Gesellschaft mit beschränkter Haftung, priority 1999, dated 2004).

What all share (format): in vivo
Data set [1] in a line: bioavailability after oral administration (AUCpo/AUCiv), monkeys. As to conditions: 2 monkeys (individual values); oral vs intravenous, dose-standardised AUCpo/AUCiv; hydrochloride hydrate. The source says:
(§1) The absorption from the digestive tract after oral administration can be calculated by comparison of the concentrations of the administered active ingredient determined in the blood plasma after oral and intravenous administration (dose-standardised AUCpo/AUCiv) [AUC=area under the curve]. […] Bioavailabilities of the hydrochloride hydrate of from 88% to 99% were found in dogs, and 75% and 96% in 2 monkeys. Since the absorption rate is at least equal to or greater than the bioavailability determined, very good absorption has thus also been found in these animal species.

Data set [2] can be described thus: bioavailability after oral administration (AUCpo/AUCiv), dogs. As to conditions: dog, plasma, oral vs intravenous, dose-standardised AUCpo/AUCiv, read-out: Bioavailabilities.
Text: as §1

Data set [3] is described as follows: absorption from the digestive tract after oral administration (AUCpo/AUCiv), rat. As to conditions: of the orally administered radioactively labelled substance.
Text: as §1

Structures are written as SMILES. “And” between values parts separate entries of the source, which are not always exact repeats. Equal entries are not always repeated.

With `Cc1cc(S(C)(=O)=O)c(S(C)(=O)=O)cc1C(=O)NC(=N)N.Cl.O` [hydrochloride hydrate, N-(4,5-bismethanesulfonyl-2-methylbenzoyl)guanidine, hydrochloride hydrate], the Bioavailabilities in data set [1] is 75% and 96%. The bioavailability in data set [2] lay in the range of 88 to 99%. The absorption rate in data set [3] came to 98%.
